Measurements: patent US20260021103A1, “IKZF2 AND CK1-ALPHA DEGRADING COMPOUNDS AND USES THEREOF” (President and Fellows of Harvard College, priority 2022, published 2026)

How the values were obtained:
Assay type in all cases: cell-based
IKZF2 = biological target: T1, IKZF2 (Homo sapiens, UniProt Q96SW2+Q9UKS7); experiment: Flow cytometry for measuring degradation, HEK293T GFP-POI reporter cells (IKZF2); settings: for IKZF2% degradation at 100 nM / IKZF2% degradation at 1 μM: 24 h, HEK293T GFP reporter; for Dmax: HEK-293T; for Dmax / DC50: Table 3
T1 construct: expressed in transfected cells; host or cells: HEK293T (lentiviral transduction, puromycin selection, FACS sorting)
T1 sequence (Q9UKS7 whole entry): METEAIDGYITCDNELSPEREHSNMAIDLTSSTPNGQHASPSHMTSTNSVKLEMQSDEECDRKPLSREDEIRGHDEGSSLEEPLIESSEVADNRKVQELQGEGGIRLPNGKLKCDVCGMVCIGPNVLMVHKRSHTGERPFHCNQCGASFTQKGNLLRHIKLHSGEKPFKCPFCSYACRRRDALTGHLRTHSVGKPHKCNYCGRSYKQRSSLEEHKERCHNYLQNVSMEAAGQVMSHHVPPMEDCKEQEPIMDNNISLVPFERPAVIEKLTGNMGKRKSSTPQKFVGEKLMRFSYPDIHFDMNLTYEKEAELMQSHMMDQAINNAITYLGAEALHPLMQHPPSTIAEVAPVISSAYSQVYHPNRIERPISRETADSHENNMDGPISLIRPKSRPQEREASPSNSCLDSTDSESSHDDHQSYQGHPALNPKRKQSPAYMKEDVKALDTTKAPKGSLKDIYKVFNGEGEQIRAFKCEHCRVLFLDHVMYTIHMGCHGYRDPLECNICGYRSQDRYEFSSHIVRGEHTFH
T1 sequence (Q96SW2 whole entry): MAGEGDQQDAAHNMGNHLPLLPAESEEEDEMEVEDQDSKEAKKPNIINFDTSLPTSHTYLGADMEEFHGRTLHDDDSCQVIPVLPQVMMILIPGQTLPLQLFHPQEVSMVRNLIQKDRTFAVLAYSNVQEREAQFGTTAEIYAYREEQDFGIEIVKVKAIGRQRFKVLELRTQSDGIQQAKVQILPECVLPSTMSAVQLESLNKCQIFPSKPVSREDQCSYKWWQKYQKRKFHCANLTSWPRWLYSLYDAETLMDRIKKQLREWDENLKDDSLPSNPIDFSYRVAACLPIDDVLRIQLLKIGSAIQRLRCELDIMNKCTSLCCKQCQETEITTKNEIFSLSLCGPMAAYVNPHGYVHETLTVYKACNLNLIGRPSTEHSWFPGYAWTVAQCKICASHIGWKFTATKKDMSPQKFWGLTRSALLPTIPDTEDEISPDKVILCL
T1 sequence (Q16531 whole entry partner): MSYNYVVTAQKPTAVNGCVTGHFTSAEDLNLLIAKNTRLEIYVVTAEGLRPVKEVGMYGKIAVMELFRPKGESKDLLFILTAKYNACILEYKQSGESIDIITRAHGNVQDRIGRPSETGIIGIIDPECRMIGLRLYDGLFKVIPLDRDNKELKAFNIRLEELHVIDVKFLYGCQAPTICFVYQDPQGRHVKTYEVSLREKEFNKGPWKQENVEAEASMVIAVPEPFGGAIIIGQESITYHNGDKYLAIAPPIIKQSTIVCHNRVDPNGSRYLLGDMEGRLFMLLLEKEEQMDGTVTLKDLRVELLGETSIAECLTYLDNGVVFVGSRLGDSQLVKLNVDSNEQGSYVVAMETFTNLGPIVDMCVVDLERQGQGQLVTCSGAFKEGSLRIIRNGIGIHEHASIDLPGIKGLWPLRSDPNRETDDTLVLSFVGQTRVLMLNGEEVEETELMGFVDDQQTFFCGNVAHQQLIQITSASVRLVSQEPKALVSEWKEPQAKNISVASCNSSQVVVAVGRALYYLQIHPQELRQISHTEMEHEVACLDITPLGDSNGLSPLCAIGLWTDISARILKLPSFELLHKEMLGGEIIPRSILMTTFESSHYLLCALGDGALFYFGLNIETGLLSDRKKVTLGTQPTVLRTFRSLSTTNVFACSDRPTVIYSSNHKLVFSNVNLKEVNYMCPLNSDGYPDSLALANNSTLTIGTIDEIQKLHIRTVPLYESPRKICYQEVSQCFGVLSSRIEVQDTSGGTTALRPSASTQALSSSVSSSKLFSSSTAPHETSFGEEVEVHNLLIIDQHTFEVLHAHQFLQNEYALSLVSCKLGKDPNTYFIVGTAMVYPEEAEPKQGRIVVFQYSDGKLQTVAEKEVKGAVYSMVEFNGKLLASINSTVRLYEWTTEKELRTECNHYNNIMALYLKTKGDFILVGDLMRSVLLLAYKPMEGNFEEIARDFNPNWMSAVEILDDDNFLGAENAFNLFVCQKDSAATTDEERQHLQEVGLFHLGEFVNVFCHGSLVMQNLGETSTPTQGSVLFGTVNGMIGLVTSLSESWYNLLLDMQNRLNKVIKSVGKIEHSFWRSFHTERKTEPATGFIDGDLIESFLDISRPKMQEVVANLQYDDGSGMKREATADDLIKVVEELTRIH

IKZF1 = biological target: T2, IKZF1 (Homo sapiens, UniProt Q13422+Q96SW2); experiment: Flow cytometry for measuring degradation, HEK293T GFP-POI reporter cells (IKZF1); settings: for IKZF1% degradation at 100 nM / IKZF1% degradation at 1 μM: 24 h, HEK293T GFP reporter; for Dmax: HEK-293T, Table 3
T2 construct: expressed in transfected cells; host or cells: HEK293T (lentiviral transduction, puromycin selection, FACS sorting)
T2 sequence (Q13422 whole entry): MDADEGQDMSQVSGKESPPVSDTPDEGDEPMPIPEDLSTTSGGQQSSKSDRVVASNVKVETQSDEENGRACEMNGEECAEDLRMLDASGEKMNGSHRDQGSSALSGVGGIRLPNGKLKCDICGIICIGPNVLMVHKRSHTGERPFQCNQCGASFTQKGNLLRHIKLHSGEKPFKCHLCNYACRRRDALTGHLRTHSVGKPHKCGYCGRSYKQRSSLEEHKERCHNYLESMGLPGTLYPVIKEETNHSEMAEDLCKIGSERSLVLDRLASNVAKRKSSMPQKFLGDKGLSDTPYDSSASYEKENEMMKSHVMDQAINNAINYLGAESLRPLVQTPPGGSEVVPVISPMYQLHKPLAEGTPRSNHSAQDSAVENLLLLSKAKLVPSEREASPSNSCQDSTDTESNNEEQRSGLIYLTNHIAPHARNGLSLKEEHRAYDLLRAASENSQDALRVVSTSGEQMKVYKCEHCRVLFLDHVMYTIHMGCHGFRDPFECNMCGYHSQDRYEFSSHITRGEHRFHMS
T2 sequence (Q96SW2 whole entry): as the sequence (Q96SW2 whole entry) above
T2 sequence (Q16531 whole entry partner): as the sequence (Q16531 whole entry partner) above

GSPT1 = GSPT1 (Homo sapiens, UniProt P15170+Q96SW2); experiment: Flow cytometry for measuring degradation, HEK293T GFP-POI reporter cells (GSPT1); parameters: expressed in transfected cells; host or cells: HEK293T; settings: for GSPT1% degradation at 100 nM / GSPT1% degradation at 1 μM: 24 h, HEK293T GFP reporter; for Dmax: HEK-293T, Table 3
Chain of GSPT1 (P15170 whole entry): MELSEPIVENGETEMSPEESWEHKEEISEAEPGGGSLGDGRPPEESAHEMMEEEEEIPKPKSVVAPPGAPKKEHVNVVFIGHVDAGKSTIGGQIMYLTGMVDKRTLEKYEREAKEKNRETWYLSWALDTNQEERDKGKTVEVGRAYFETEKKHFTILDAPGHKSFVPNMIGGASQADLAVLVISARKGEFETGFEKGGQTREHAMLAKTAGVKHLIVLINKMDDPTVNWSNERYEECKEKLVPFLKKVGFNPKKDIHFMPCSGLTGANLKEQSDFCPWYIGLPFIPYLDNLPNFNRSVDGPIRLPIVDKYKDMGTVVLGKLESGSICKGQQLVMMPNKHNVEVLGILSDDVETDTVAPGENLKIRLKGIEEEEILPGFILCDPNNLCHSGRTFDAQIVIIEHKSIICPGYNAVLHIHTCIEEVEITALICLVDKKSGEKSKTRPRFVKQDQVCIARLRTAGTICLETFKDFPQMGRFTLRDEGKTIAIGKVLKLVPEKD
Chain of GSPT1 (Q96SW2 whole entry): as the sequence (Q96SW2 whole entry) above
Chain of GSPT1 (Q16531 whole entry partner): as the sequence (Q16531 whole entry partner) above

CK1α = biological target: T3, CK1α (Homo sapiens, UniProt P48729+Q96SW2); experiment: Flow cytometry for measuring degradation, HEK293T GFP-POI reporter cells (CK1α); settings: for CK1α % degradation at 100 nM / CK1α % degradation at 1 μM: 24 h, HEK293T GFP reporter; for Dmax: CK1, read-out: Dmax CK1a (%); for Dmax / DC50: Table 3; for DC50: read-out: DC50 CK1a
T3 construct: expressed in transfected cells; host or cells: HEK293T (lentiviral transduction, puromycin selection, FACS sorting)
T3 sequence (P48729 whole entry): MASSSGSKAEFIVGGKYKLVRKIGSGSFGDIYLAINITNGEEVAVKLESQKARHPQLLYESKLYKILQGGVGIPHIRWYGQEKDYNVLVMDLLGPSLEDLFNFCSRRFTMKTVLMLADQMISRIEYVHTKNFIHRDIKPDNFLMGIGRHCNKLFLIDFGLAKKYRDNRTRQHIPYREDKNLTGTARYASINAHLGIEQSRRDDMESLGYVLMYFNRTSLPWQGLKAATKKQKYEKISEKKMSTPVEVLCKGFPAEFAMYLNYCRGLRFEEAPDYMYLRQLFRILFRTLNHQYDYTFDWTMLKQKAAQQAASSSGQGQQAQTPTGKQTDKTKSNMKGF
T3 sequence (Q96SW2 whole entry): as the sequence (Q96SW2 whole entry) above
T3 sequence (Q16531 whole entry partner): as the sequence (Q16531 whole entry partner) above

CN1C(=O)COc2cc(C(=O)Nc3ccc4c(c3)CN(C3CCC(=O)NC3=O)C4=O)ccc21 (stereo not drawn) [DEG-94, N-(2-(2,6-dioxopiperidin-3-yl)-1-oxoisoindolin-5-yl)-4-methyl-3-oxo-3,4-dihydro-2H-benzo[b][1,4]oxazine-7-carboxamide]
IKZF2% degradation at 100 nM (IKZF2): 51.8% | IKZF2% degradation at 1 μM (IKZF2): 85.2% | Dmax (IKZF2): 92.8% | DC50 (IKZF2): 78.8 nM | IKZF1% degradation at 100 nM (IKZF1): 8.7% | IKZF1% degradation at 1 μM (IKZF1): 20.8% | Dmax (IKZF1): 30.5% | GSPT1% degradation at 100 nM (GSPT1): 9.3% | GSPT1% degradation at 1 μM (GSPT1): 13.2% | Dmax (GSPT1): 13.7% | CK1α % degradation at 100 nM (CK1α): 51.3% | CK1α % degradation at 1 μM (CK1α): 71.5% | Dmax (CK1α): 76.7% | DC50 (CK1α): 42.5 nM

O=C1CCC(N2Cc3cc(NC(=O)Cc4ccc5ccccc5c4)ccc3C2=O)C(=O)N1 (stereo not drawn) [DEG-71, N-(2-(2,6-dioxopiperidin-3-yl)-1-oxoisoindolin-5-yl)-2-(naphthalen-2-yl)acetamide]
IKZF2% degradation at 100 nM (IKZF2): 93.8 ± 0.5% | IKZF2% degradation at 1 μM (IKZF2): 88.5 ± 3% | IKZF1% degradation at 100 nM (IKZF1): 98.5 ± 0.1% | IKZF1% degradation at 1 μM (IKZF1): 98.4 ± 0.1% | GSPT1% degradation at 100 nM (GSPT1): 63.1 ± 0.4% | GSPT1% degradation at 1 μM (GSPT1): 69.4 ± 0.6% | CK1α % degradation at 100 nM (CK1α): −190.2 ± 2.8% | CK1α % degradation at 1 μM (CK1α): −153 ± 2.3%

COc1cc(Br)cc2c1OCC(C(=O)Nc1ccc3c(c1)CN(C1CCC(=O)NC1=O)C3=O)=C2 (stereo not drawn) [DEG-84, 6-bromo-N-(2-(2,6-dioxopiperidin-3-yl)-1-oxoisoindolin-5-yl)-8-methoxy-2H-chromene-3-carboxamide]
IKZF2% degradation at 100 nM (IKZF2): 74.4 ± 0.4% | IKZF2% degradation at 1 μM (IKZF2): 87.8 ± 0.2% | IKZF1% degradation at 100 nM (IKZF1): 12.6 ± 0.5% | IKZF1% degradation at 1 μM (IKZF1): 26.1 ± 0.5% | GSPT1% degradation at 100 nM (GSPT1): 1.6 ± 1.1% | GSPT1% degradation at 1 μM (GSPT1): 4.1 ± 2.6% | CK1α % degradation at 100 nM (CK1α): 64.7 ± 0.1% | CK1α % degradation at 1 μM (CK1α): 68 ± 1.8%

O=C1CCC(N2Cc3cc(NC(=O)c4ccc5cc(O)ccc5c4)ccc3C2=O)C(=O)N1 (stereo not drawn) [DEG-90, N-(2-(2,6-dioxopiperidin-3-yl)-1-oxoisoindolin-5-yl)-6-hydroxy-2-naphthamide]
IKZF2% degradation at 100 nM (IKZF2): 60 ± 1% | IKZF2% degradation at 1 μM (IKZF2): 89 ± 0.2% | IKZF1% degradation at 100 nM (IKZF1): 6 ± 0.1% | IKZF1% degradation at 1 μM (IKZF1): 6.3 ± 1.6% | GSPT1% degradation at 100 nM (GSPT1): −1.9 ± 1.4% | GSPT1% degradation at 1 μM (GSPT1): 7.8 ± 1.4% | CK1α % degradation at 100 nM (CK1α): 54.5 ± 0.6% | CK1α % degradation at 1 μM (CK1α): 71.1 ± 0.6%

CC(=O)Nc1ccc2c(c1)CN(C1CCC(=O)NC1=O)C2=O (stereo not drawn) [DEG-66, N-(2-(2,6-dioxopiperidin-3-yl)-1-oxoisoindolin-5-yl)acetamide]
IKZF2% degradation at 100 nM (IKZF2): 16.6 ± 0.1% | IKZF2% degradation at 1 μM (IKZF2): 48.5 ± 0.2% | IKZF1% degradation at 100 nM (IKZF1): 4.4 ± 0.8% | IKZF1% degradation at 1 μM (IKZF1): 10.9 ± 0.9% | GSPT1% degradation at 100 nM (GSPT1): 9.9 ± 0.8% | GSPT1% degradation at 1 μM (GSPT1): 8.6 ± 0.8% | CK1α % degradation at 100 nM (CK1α): 12 ± 1.3% | CK1α % degradation at 1 μM (CK1α): 25.4 ± 0.8%

CS(=O)(=O)c1ccc2cc(C(=O)Nc3ccc4c(c3)CN(C3CCC(=O)NC3=O)C4=O)ccc2c1 (stereo not drawn) [DEG-93, N-(2-(2,6-dioxopiperidin-3-yl)-1-oxoisoindolin-5-yl)-6-(methylsulfonyl)-2-naphthamide]
IKZF2% degradation at 100 nM (IKZF2): 56.0% | IKZF2% degradation at 1 μM (IKZF2): 87.7% | Dmax (IKZF2): 95.1% | DC50 (IKZF2): 73.1 nM | IKZF1% degradation at 100 nM (IKZF1): 4.9% | IKZF1% degradation at 1 μM (IKZF1): 7.0% | Dmax (IKZF1): 10.4% | GSPT1% degradation at 100 nM (GSPT1): 7.8% | GSPT1% degradation at 1 μM (GSPT1): 10.6% | Dmax (GSPT1): 14.6% | CK1α % degradation at 100 nM (CK1α): 60.2% | CK1α % degradation at 1 μM (CK1α): 74.6% | Dmax (CK1α): 78.9% | DC50 (CK1α): 21.1 nM
